Where two headings read alike, the source gives them in different places.
Key:
Hepatitis B virus (HBV) = assay: Anti-HBV assay in 2.2.15 cells (virion DNA, HBV RI); assay type: cell-based; details: for HBV RI, percentage of control / Virion DNA, percentage of control: 10 μM, day 9, 2.2.15 cells
Procedure: The anti-HBV assays were performed according to the published protocol of Korba and Milman, (Korba, B. E.; Milman, G. Antiviral Res., 15, 217 1991), using cultures of 2.2.15 cells. In brief, the assay consisted of (a) seeding the chronically HBV-producing human liver cells (Acs et al. Proc. Nat. Acad. Sci., 84, 464 1987) into 24-well tissue culture plates, and growing to confluence, (b) adding test compounds daily for a continuous 9-day period, harvesting culture media after day 9 and (c) lysing treated cells 24 hours following day 9 of treatment for the analysis of extracellular virion DNA and intracellular HBV genomic forms.
Anti-HBV activity and the toxicity against confluent 2.2.15 cells were determined by the previously described procedure (Korba, B. E., et al. Antivir. Res., 19:55-70, 1992; Korba, B. E., et al. Antivir. Res., 15:217-228, 1991). Briefly, confluent cultures of HBV transfected 2.2.15 cells were maintained on either 96-well or 24-well flat-bottomed tissue culture plates in RPMI 1640 medium with 2% fetal bovine serum (FBS). The cells were treated with test compounds daily for nine consecutive days. The culture media were harvested on day 9 to quantify the amount of virion DNA. On day 10, the cells were lysed to quantify the amount of intracellular HBV replicative intermediates (RI). The quantification of virion DNA and the HBV RI were done by blot hybridization methods (Korba, B. E., et al. Antivir. Res., 19:55-70, 1992; Korba, B. E., et al. Antivir. Res., 15:217-228, 1991). Cellular toxicity against separate cultures of confluent 2.2.15 cells was measured after treatment with the compounds for nine days under identical culture conditions as those used for the antiviral assay (Korba, B. E., et al. Antivir. Res., 19:55-70, 1992). Uptake of neutral red dye by treated cells was compared with dye uptake by untreated control cells (Korba, B. E., et al. Antivir. Res., 19:55-70, 1992).

2.2.15 cells = assay: Toxicity in confluent 2.2.15 cells (neutral red dye uptake); assay type: cell-based, human
Procedure: Anti-HBV activity and the toxicity against confluent 2.2.15 cells were determined by the previously described procedure (Korba, B. E., et al. Antivir. Res., 19:55-70, 1992; Korba, B. E., et al. Antivir. Res., 15:217-228, 1991). Briefly, confluent cultures of HBV transfected 2.2.15 cells were maintained on either 96-well or 24-well flat-bottomed tissue culture plates in RPMI 1640 medium with 2% fetal bovine serum (FBS). The cells were treated with test compounds daily for nine consecutive days. […] Cellular toxicity against separate cultures of confluent 2.2.15 cells was measured after treatment with the compounds for nine days under identical culture conditions as those used for the antiviral assay (Korba, B. E., et al. Antivir. Res., 19:55-70, 1992). Uptake of neutral red dye by treated cells was compared with dye uptake by untreated control cells (Korba, B. E., et al. Antivir. Res., 19:55-70, 1992).

HIV = assay: Antiviral test against HIV; assay type: cell-based
Procedure: (§1) These compounds were also tested for their effects on HIV (Weislow, O. , et al., J. Natl. Cancer Inst., 81:577-586, 1989), herpes simplex virus (HSV)-1, HSV-2, cytomegalovirus (CMV), Varicella Zoster virus (VZV) and Epstein-Barr virus (EBV) replication (National Institute of Allergy and Infectious Diseases (NIAID), NIH, Bethesda, Md.).

[1] = tested on: Varicella Zoster virus (VZV); assay: Antiviral test against VZV; assay type: cell-based
Procedure: as §1

K-562 = assay: SRB anti-cancer assay, Leukemia; assay type: cell-based, human; details: K-562 (Leukemia), 48 h
A549/ATCC = assay type: cell-based, human; details: A549/ATCC (Non-Small Cell Lung Cancer), 48 h; for CC50: read-out: LC50 (the source's name)
NCI-H460 = assay type: cell-based, human; details: NCI-H460 (Non-Small Cell Lung Cancer), 48 h; for CC50: read-out: LC50 (the source's name)
KM12 = assay: SRB anti-cancer assay, Colon Cancer; assay type: cell-based, human; details: 48 h
SF-268 = assay: SRB anti-cancer assay, CNS Cancer; assay type: cell-based, human; details: SF-268 (CNS Cancer), 48 h; for CC50: read-out: LC50 (the source's name)
M14 = assay: SRB anti-cancer assay, Melanoma; assay type: cell-based, human; details: 48 h; for CC50: read-out: LC50 (the source's name)
UACC-62 = assay: SRB anti-cancer assay, Melanoma; assay type: cell-based, human; details: UACC-62 (Melanoma), 48 h; for CC50: read-out: LC50 (the source's name)
SK-OV-3 = assay: SRB anti-cancer assay, Ovarian Cancer; assay type: cell-based, human; details: SK-OV-3 (Ovarian Cancer), 48 h; for CC50: read-out: LC50 (the source's name)
DU-145 = assay: SRB anti-cancer assay, Prostate Cancer; assay type: cell-based, human; details: DU-145 (Prostate Cancer), 48 h; for CC50: read-out: LC50 (the source's name)
NCI/ADR-RES = assay: SRB anti-cancer assay, Breast Cancer; assay type: cell-based, human; details: 48 h; for CC50: read-out: LC50 (the source's name)
MDA-MB- 231/ATCC = assay: SRB anti-cancer assay, Breast Cancer; assay type: cell-based, human; details: MDA-MB- 231/ATCC (Breast Cancer), 48 h; for CC50: read-out: LC50 (the source's name)
MDA-MB-435 = assay: SRB anti-cancer assay, Breast Cancer; assay type: cell-based, human; details: MDA-MB-435 (Breast Cancer), 48 h; for CC50: read-out: LC50 (the source's name)
T-47D = assay: SRB anti-cancer assay, Breast Cancer; assay type: cell-based, human; details: T-47D (Breast Cancer), 48 h; for CC50: read-out: LC50 (the source's name)
[2] = tested on: panel of cancer cell lines; assay: In vitro anti-cancer assay, panel of cancer cell lines (sulforhodamine B); assay type: cell-based, human; details: leukemia, non-small cell lung, colon, CNS, melanoma, ovarian, renal, prostate and breast cancer cell lines; read-out: GI50 values, range over the panel
SK-MEL-2 = assay: SRB anti-cancer assay, Melanoma; assay type: cell-based, human; details: SK-MEL-2 (Melanoma), 48 h
PC-3 = assay: SRB anti-cancer assay, Prostate Cancer; assay type: cell-based, human; details: PC-3 (Prostate Cancer), 48 h
[3] = extracellular HBV virion DNA, 10 fold inhibition, 9 days, read-out: EC90 Virion
[4] = extracellular HBV virion DNA, 9 days, read-out: EC50 Virion
[5] = confluent 2.2.15 cells, 9 days, neutral red dye uptake, read-out: CC50
[6] = read-out: LC50 (the source's name)

N=c1[nH]c(=O)c2ncn([C@@H]3O[C@H](CO)[C@@H](O)[C@H]3O)c2c(=O)[nH]1 [Compound 14-1, 6-Imino-6H-1-β-D-ribofuranosyl-4,5,7,8-tetrahydroimidazo[4,5-e][1,3]diazepine-4,8-dione]
HBV RI, percentage of control (Hepatitis B virus (HBV)): 15 ± 2 %
Virion DNA, percentage of control (Hepatitis B virus (HBV)): 4 ± 1 %
EC90 (Hepatitis B virus (HBV); assay repeated three times, read-out: average EC90 for HBV virion inhibition): 1.29 µM
EC90 (Hepatitis B virus (HBV); [3]): 0.989 ± 0.11 µM
EC50 (Hepatitis B virus (HBV); [4]): 0.131 µM
EC90 (Hepatitis B virus (HBV); intracellular HBV DNA replicative intermediates, 10 fold inhibition, 9 days, read-out: EC90 HBV RI): 7.3 ± 0.7 µM
EC50 (Hepatitis B virus (HBV); intracellular HBV DNA replicative intermediates, 9 days, read-out: EC50 HBV RI): 0.604 µM
EC50 (Hepatitis B virus (HBV); transfected hepatoma cell line 2.2.15, Example 13, read-out: EC50 (anti-HBV activity)): 0.17 µM
CC50 (2.2.15 cells; 2.2.15 cells, Example 13, read-out: CC50 (cellular toxicity)): 2400 µM
CC50 (2.2.15 cells; [5]): 2430 µM
antiviral activity against HIV (HIV): no antiviral activity
antiviral activity against VZV [1]: no antiviral activity
GI50 (K-562): > 100 µM
TGI (K-562): >100 µM
CC50 (K-562; [6]): > 100 µM
GI50 (A549/ATCC): > 100 µM
TGI (A549/ATCC): >100 µM
CC50 (A549/ATCC): > 100 µM
GI50 (NCI-H460): > 100 µM
TGI (NCI-H460): >100 µM
CC50 (NCI-H460): > 100 µM
GI50 (KM12): > 100 µM
LC50 (KM12): > 100 µM
TGI (KM12): >100 µM
GI50 (SF-268): > 100 µM
TGI (SF-268): >100 µM
CC50 (SF-268): > 100 µM
GI50 (M14): > 100 µM
TGI (M14): >100 µM
CC50 (M14): > 100 µM
GI50 (UACC-62): > 100 µM
TGI (UACC-62): >100 µM
CC50 (UACC-62): > 100 µM
GI50 (SK-OV-3): > 100 µM
TGI (SK-OV-3): >100 µM
CC50 (SK-OV-3): > 100 µM
GI50 (DU-145): > 100 µM
TGI (DU-145): >100 µM
CC50 (DU-145): > 100 µM
GI50 (NCI/ADR-RES): > 100 µM
TGI (NCI/ADR-RES): >100 µM
CC50 (NCI/ADR-RES): > 100 µM
TGI (MDA-MB- 231/ATCC): >100 µM
CC50 (MDA-MB- 231/ATCC): > 100 µM
GI50 (MDA-MB-435): > 100 µM
TGI (MDA-MB-435): >100 µM
CC50 (MDA-MB-435): > 100 µM
GI50 (T-47D): > 100 µM
TGI (T-47D): >100 µM
CC50 (T-47D): > 100 µM

N=c1nc(N)c2ncn([C@@H]3O[C@H](CO)[C@@H](O)[C@H]3O)c2c(N)n1 [Compound 14-2, 4,8-Diamino-6H-6-imino-1-β-D-ribofuranosylimidazo[4,5-e][1,3]diazepine]
HBV RI, percentage of control (Hepatitis B virus (HBV)): 6 ± 1 %
Virion DNA, percentage of control (Hepatitis B virus (HBV)): 1 ± 1 %
EC90 (Hepatitis B virus (HBV); [3]): 4.7 ± 0.5 µM
EC50 (Hepatitis B virus (HBV); [4]): 0.397 ± 0.03 µM
CC50 (2.2.15 cells; [5]): 501 µM
antiviral activity against HIV (HIV): no antiviral activity
antiviral activity against VZV [1]: no antiviral activity
GI50 [2]: 1 to 10 µM
GI50 (A549/ATCC): 22.3 µM
TGI (A549/ATCC): 58.4 µM
CC50 (A549/ATCC): > 100 µM
GI50 (NCI-H460): 15.4 µM
TGI (NCI-H460): 31.4 µM
CC50 (NCI-H460): 64.1 µM
GI50 (KM12): 18.6 µM
LC50 (KM12): > 100 µM
TGI (KM12): 59.3 µM
GI50 (SF-268): 15.7 µM
TGI (SF-268): 34.8 µM
CC50 (SF-268): 77.2 µM
GI50 (M14): 11.5 µM
TGI (M14): 24.3 µM
CC50 (M14): 51.1 µM
GI50 (SK-MEL-2): 15.4 µM
LC50 (SK-MEL-2): 76.9 µM
TGI (SK-MEL-2): 34.5 µM
GI50 (UACC-62): 2.88 µM
TGI (UACC-62): 16.2 µM
CC50 (UACC-62): 56.3 µM
GI50 (SK-OV-3): 51.8 µM
TGI (SK-OV-3): >100 µM
CC50 (SK-OV-3): > 100 µM
GI50 (PC-3): 16.6 µM
TGI (PC-3): 44.5 µM
CC50 (PC-3; [6]): > 100 µM
GI50 (DU-145): 15 µM
TGI (DU-145): 30.2 µM
CC50 (DU-145): 60.7 µM
GI50 (NCI/ADR-RES): 23.4 µM
TGI (NCI/ADR-RES): 67.6 µM
CC50 (NCI/ADR-RES): > 100 µM
GI50 (MDA-MB- 231/ATCC): 23.8 µM
TGI (MDA-MB- 231/ATCC): 52.8 µM
CC50 (MDA-MB- 231/ATCC): > 100 µM
GI50 (MDA-MB-435): 12.8 µM
TGI (MDA-MB-435): 29.1 µM
CC50 (MDA-MB-435): 65.9 µM
GI50 (T-47D): 13.3 µM
TGI (T-47D): 39.6 µM
CC50 (T-47D): > 100 µM
